These results are taken from ChEMBL document CHEMBL1143695, “Synthesis and biological studies of novel 2-aminoalkylethers as potential antiarrhythmic agents for the conversion of atrial fibrillation” (J Med Chem, 2007).

Data set [1] has as its system Rattus norvegicus. The experiment in a line: CNS toxicity in iv dosed Sprague-Dawley rat assessed as cumulative convulsion dose. The class given is organism-based. To be noted: in vivo.
In data set [2] the test system is Rattus norvegicus. As to the kind of experiment: Antiarrhythmic activity in intravenously dosed Sprague-Dawley rat with ischemia-induced arrhythmia. The class given is functional, Heart.
A further data set in a line: in vivo. To be noted: CD1, mouse, iv.

Description for in vivo: Toxicity in intravenously dosed CD1 mouse

Take `COc1ccc(CCO[C@@H]2CCCC[C@H]2N2CCNCC2)cc1OC`: the Activity with Rattus norvegicus [1] amounted to 392 µmol/kg. In the data set on Rattus norvegicus [2], this compound gave an ED50 of 1.6 µmol/kg/min.

Consider `c1ccc2c(CCO[C@@H]3CCCC[C@H]3N3CCOCC3)csc2c1`, for which, in the data set with Rattus norvegicus [1], the Activity worked out at 65 µmol/kg. In the data set “in vivo”, this compound came in with an LD50 of 52 µmol/kg. In the data set on Rattus norvegicus [2], this compound came in with an ED50 of 0.8 µmol/kg/min.

Take `c1ccc2cc(CCO[C@@H]3CCCC[C@H]3N3CCOCC3)ccc2c1`: the Activity with Rattus norvegicus [1] turned out to be 85 µmol/kg. The compound further had a 50% lethal dose (LD50) in “in vivo” of 130 µmol/kg. Moreover, the 50% effective dose (ED50) in the data set on Rattus norvegicus [2] was found to be 0.8 µmol/kg/min.

In the case of `Brc1ccc(CCCO[C@@H]2CCCC[C@H]2N2CCOCC2)cc1`, the Activity with Rattus norvegicus [1] worked out at 143 µmol/kg. The LD50 in the data set “in vivo” was determined as 209 µmol/kg. In addition, the ED50 with Rattus norvegicus [2] amounted to 3.5 µmol/kg/min.

As to `CC(=O)N1CCN([C@@H]2CCCC[C@H]2OCCc2ccc3ccccc3c2)CC1`, in the data set with Rattus norvegicus [1], the Activity is 67 µmol/kg.

As for `O=C1CCN([C@@H]2CCCC[C@H]2OCCc2ccc(Br)cc2)C1`, in the data set with Rattus norvegicus [1], the Activity was 161 µmol/kg. Also, in the data set with Rattus norvegicus [2], the ED50 turned out to be 8 µmol/kg/min.

For `c1ccc2cc(CCO[C@@H]3CCC[C@H]3N3CCOCC3)ccc2c1`, the Activity with Rattus norvegicus [1] was 187 µmol/kg. In the data set on Rattus norvegicus [2], this compound came in with a 50% effective dose (ED50) of 1.5 µmol/kg/min.

As for `O=C1CCN([C@@H]2CCCC[C@H]2OCCc2ccccc2Br)C1`, the Activity in the data set on Rattus norvegicus [1] is 155 µmol/kg.

As to `c1ccc2cc(OCCO[C@@H]3CCCC[C@H]3N3CCOCC3)ccc2c1`, the Activity with Rattus norvegicus [1] stood at 62 µmol/kg.

In the case of `O=C1CCN([C@@H]2CCCC[C@H]2OCCc2ccccc2C(F)(F)F)C1`, in the data set with Rattus norvegicus [1], the Activity was determined as 225 µmol/kg. This compound also showed a median effective dose (ED50) in the data set with Rattus norvegicus [2] of 2.7 µmol/kg/min.

As for `c1cc(CCO[C@@H]2CCCC[C@H]2N2CCOCC2)c2ccoc2c1`, the LD50 in “in vivo” worked out at 56 µmol/kg. Further, the 50% effective dose (ED50) with Rattus norvegicus [2] is 1.4 µmol/kg/min.

For `O=C1CCN([C@@H]2CCCC[C@H]2OCCc2ccc(Br)cc2Br)C1`, the Activity in the data set on Rattus norvegicus [1] came to 246 µmol/kg.

With `COc1ccc(CCO[C@@H]2CCCC[C@H]2N2CCC(=O)C2)cc1OC`, the Activity with Rattus norvegicus [1] is 235 µmol/kg. Also, in the data set with Rattus norvegicus [2], the 50% effective dose (ED50) worked out at 4.5 µmol/kg/min.

As to `c1ccc2c(CCO[C@@H]3CCCC[C@H]3N3CCC4(C3)OCCO4)cccc2c1`, the Activity in the data set on Rattus norvegicus [1] turned out to be 41 µmol/kg.

`Brc1ccc(CCO[C@H]2CCCC[C@H]2N2CCOCC2)cc1` (single isomer, unassigned): the Activity in the data set on Rattus norvegicus [1] was 6.7 µmol/kg. Moreover, the median effective dose (ED50) with Rattus norvegicus [2] stood at 2 µmol/kg/min.

Turning to `COc1ccc(CCO[C@@H]2CCCC[C@H]2N2CCCC2)cc1OC`, the Activity with Rattus norvegicus [1] was 118 µmol/kg. This compound displayed a median effective dose (ED50) with Rattus norvegicus [2] of 1.3 µmol/kg/min.

With `COc1ccc(CCO[C@@H]2CCCC[C@H]2N2CCC3(C2)OCCO3)cc1OC`, in the data set with Rattus norvegicus [1], the Activity worked out at 91 µmol/kg. The ED50 in the data set on Rattus norvegicus [2] worked out at 1.6 µmol/kg/min.

Take `COCCN(CCOC)[C@@H]1CCCC[C@H]1OCCc1ccc2ccccc2c1`: the Activity in the data set on Rattus norvegicus [1] was 83 µmol/kg. Further, the median effective dose (ED50) in the data set with Rattus norvegicus [2] stood at 3 µmol/kg/min.

For the compound `OC1CCN([C@@H]2CCCC[C@@H]2OCCc2cccc3ccccc23)C1` (mixture of isomers), the Activity with Rattus norvegicus [1] is 70 µmol/kg. This compound also gave a median effective dose (ED50) in the data set with Rattus norvegicus [2] of 0.4 µmol/kg/min.

Turning to `O=C1CCN([C@@H]2CCCC[C@@H]2OCCc2cccc3ccccc23)C1`, in the data set with Rattus norvegicus [1], the Activity is 145 µmol/kg. The ED50 with Rattus norvegicus [2] was found to be 1.6 µmol/kg/min.

For `Clc1cccc(Cl)c1CCO[C@@H]1CCCC[C@H]1N1CCOCC1`, the Activity in the data set with Rattus norvegicus [1] came to 86 µmol/kg. Moreover, the median lethal dose (LD50) in “in vivo” came out at 76 µmol/kg. The same compound had an ED50 with Rattus norvegicus [2] of 1.2 µmol/kg/min.

On to `Clc1cccc(Cl)c1CCO[C@@H]1CCCC[C@H]1N1CCSC1`, for which, in the data set on Rattus norvegicus [1], the Activity was 331 µmol/kg. In the data set with Rattus norvegicus [2], this compound had an ED50 of 6.5 µmol/kg/min.

As for `c1ccc2c(CCO[C@@H]3CCCC[C@H]3N3CCCC3)cccc2c1`, the ED50 in the data set with Rattus norvegicus [2] was 0.9 µmol/kg/min.

Consider `O=C1CCN([C@@H]2CCCC[C@H]2OCCc2csc3ccccc23)C1`, for which the Activity in the data set on Rattus norvegicus [1] was found to be 203 µmol/kg.

Consider `C=C[C@H]1CN2CC[C@H]1C[C@@H]2[C@@H](O)c1ccnc2ccc(OC)cc12` [QUINIDINE], for which the Activity in the data set with Rattus norvegicus [1] is 317 µmol/kg. The compound also came in with a median effective dose (ED50) in the data set with Rattus norvegicus [2] of 4 µmol/kg/min.

For the compound `COc1ccc(CCCO[C@@H]2CCCC[C@H]2N2CCOCC2)c(OC)c1`, in the data set on Rattus norvegicus [1], the Activity is 94 µmol/kg. The same compound gave an LD50 in the data set “in vivo” of 130 µmol/kg. For the same compound, the ED50 in the data set with Rattus norvegicus [2] amounted to 1.2 µmol/kg/min.

As for `COc1ccc(CCCO[C@@H]2CCCC[C@H]2N2CCOCC2)cc1OC`, the Activity in the data set on Rattus norvegicus [1] was 109 µmol/kg. In “in vivo”, the LD50 was 112 µmol/kg. For the same compound, the ED50 with Rattus norvegicus [2] is 1.5 µmol/kg/min.

For the compound `OC1CCN([C@@H]2CCCC[C@H]2OCCc2cccc3ccccc23)C1` (mixture of isomers), the Activity in the data set with Rattus norvegicus [1] was 67 µmol/kg. The ED50 in the data set on Rattus norvegicus [2] was 0.8 µmol/kg/min.

In the case of `FC(F)(F)c1ccccc1CCO[C@@H]1CCCC[C@H]1N1CCOCC1`, the Activity with Rattus norvegicus [1] is 134 µmol/kg. This compound also returned a median effective dose (ED50) in the data set with Rattus norvegicus [2] of 0.8 µmol/kg/min.

As for `COc1ccc(CCCCO[C@@H]2CCCC[C@H]2N2CCOCC2)cc1OC`, the Activity with Rattus norvegicus [1] worked out at 67 µmol/kg. For the same compound, the ED50 with Rattus norvegicus [2] came to 1.5 µmol/kg/min.

With `OC1CCN([C@@H]2CCCC[C@H]2OCCc2ccccc2Br)C1` (mixture of isomers), the Activity with Rattus norvegicus [1] was 67 µmol/kg. The same compound came in with an ED50 in the data set with Rattus norvegicus [2] of 0.4 µmol/kg/min.

`Brc1ccccc1CCO[C@@H]1CCCC[C@H]1N1CCOCC1`: the Activity in the data set with Rattus norvegicus [1] worked out at 125 µmol/kg. Further, the LD50 in the data set “in vivo” came out at 86 µmol/kg. In the data set with Rattus norvegicus [2], this compound showed an ED50 of 1 µmol/kg/min.

For `Brc1ccc(CCO[C@@H]2CCCC[C@H]2N2CCOCC2)cc1`, the Activity in the data set with Rattus norvegicus [1] turned out to be 91 µmol/kg. The compound further gave a 50% lethal dose (LD50) in “in vivo” of 103 µmol/kg. Moreover, the ED50 in the data set on Rattus norvegicus [2] was found to be 2.5 µmol/kg/min.

For `O=C1CCN([C@@H]2CCCC[C@H]2OCC(c2ccccc2)c2ccccc2)C1`, the Activity in the data set on Rattus norvegicus [1] is 155 µmol/kg. The compound also displayed an ED50 with Rattus norvegicus [2] of 2.5 µmol/kg/min.

Turning to `Brc1cccc(CCO[C@@H]2CCCC[C@H]2N2CCOCC2)c1`, the Activity in the data set on Rattus norvegicus [1] came out at 131 µmol/kg. The ED50 with Rattus norvegicus [2] is 1.9 µmol/kg/min.

`Clc1ccc(CCO[C@@H]2CCCC[C@H]2N2CCOCC2)c(Cl)c1`: the Activity with Rattus norvegicus [1] came out at 94 µmol/kg. In addition, in the data set on Rattus norvegicus [2], the 50% effective dose (ED50) was 2.1 µmol/kg/min.

For `Brc1ccc(CCO[C@@H]2CCCC[C@H]2N2CCOCC2)c(Br)c1`, the Activity in the data set on Rattus norvegicus [1] is 123 µmol/kg.

`FC(F)(F)c1ccccc1CCO[C@H]1CCCC[C@H]1N1CCOCC1` (single isomer, unassigned): the Activity with Rattus norvegicus [1] amounted to 102 µmol/kg. In the data set with Rattus norvegicus [2], this compound came in with a median effective dose (ED50) of 1.4 µmol/kg/min.

`Brc1ccc(OCCO[C@@H]2CCCC[C@H]2N2CCOCC2)cc1`: in the data set with Rattus norvegicus [1], the Activity worked out at 83 µmol/kg. Besides, in the data set on Rattus norvegicus [2], the ED50 stood at 2.5 µmol/kg/min.

For `O=C1CCN([C@@H]2CCCC[C@H]2OCCCC2CCCCC2)C1`, the Activity in the data set on Rattus norvegicus [1] amounted to 300 µmol/kg.

In the case of `c1cc(CCO[C@@H]2CCCC[C@H]2N2CCOCC2)c2ccsc2c1`, the Activity in the data set on Rattus norvegicus [1] is 54 µmol/kg. The same compound registered an LD50 in the data set “in vivo” of 38 µmol/kg. Further, the ED50 in the data set on Rattus norvegicus [2] was determined as 0.7 µmol/kg/min.

In the case of `O=C1CCN([C@@H]2CCCC[C@H]2OCCc2cccc3ccccc23)CC1`, the Activity in the data set with Rattus norvegicus [1] turned out to be 75 µmol/kg. The same compound showed an ED50 in the data set on Rattus norvegicus [2] of 0.9 µmol/kg/min.

Consider `O=C1CCN([C@@H]2CCCC[C@H]2OCCc2ccc(Br)c3ccccc23)C1`, for which the Activity with Rattus norvegicus [1] stood at 246 µmol/kg. This compound also yielded an ED50 in the data set with Rattus norvegicus [2] of 2.8 µmol/kg/min.

As usually defined, the ED50 is the midpoint of the dose-response relation. As usually defined, the LD50 is the dose expected to kill half of the subjects tested. A higher LD50 goes with a less toxic substance.
